Test results from patent US8809372B2, “Pyridine derivatives” (Endo Pharmaceuticals, Inc., priority 2011, dated 2014).

Assays:
[1] = target: T1, human CYP17 in H295R adrenocortical carcinoma cells (Homo sapiens, UniProt P05093); assay: Cell-based human CYP17 inhibition assay, H295R cells; conditions: 16 hours, read-out: CYP17 (human H295R adrenal cells)
T1 construct: H295R Adrenocortical carcinoma cells [NCI-H295A, ATCC Number CRL-2128, American Type Culture Collection; host or cells: H295R adrenocortical carcinoma cells
T1 sequence (P05093 1-508): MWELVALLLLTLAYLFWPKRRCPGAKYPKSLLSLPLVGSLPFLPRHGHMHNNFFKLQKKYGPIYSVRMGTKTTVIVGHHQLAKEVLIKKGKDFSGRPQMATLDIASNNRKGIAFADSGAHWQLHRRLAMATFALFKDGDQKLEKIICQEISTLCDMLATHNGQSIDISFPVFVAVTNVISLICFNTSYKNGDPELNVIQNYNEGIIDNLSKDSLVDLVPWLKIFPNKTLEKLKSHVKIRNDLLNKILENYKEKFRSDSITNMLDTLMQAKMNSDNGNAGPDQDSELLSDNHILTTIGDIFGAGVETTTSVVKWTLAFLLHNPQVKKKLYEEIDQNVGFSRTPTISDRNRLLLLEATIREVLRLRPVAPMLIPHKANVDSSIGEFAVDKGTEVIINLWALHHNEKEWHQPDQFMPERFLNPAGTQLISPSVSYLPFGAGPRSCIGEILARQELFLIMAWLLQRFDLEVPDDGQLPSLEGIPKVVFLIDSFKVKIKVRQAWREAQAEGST
Procedure: Cell-Based Human CYP17 Inhibition Assay
1. H295R Adrenocortical Carcinoma Cells and Growth Media: The media for the H295R Adrenocortical carcinoma cells [NCI-H295A, ATCC Number CRL-2128, American Type Culture Collection, Manassas, Va., US] (500 mL) was a DMEM:F12 Mix 1:1 with 5% (2 mL) BD Nu Serum; 1% (5 mL) ITS+Premix [BD Biosciences] and 1% Penstrep. 2. LNCap-CYP17 Cells and Growth Media: Full length hCYP17a1 gene (NCBI Reference Sequence: NM_000102.3) was cloned in pcDNA3.1(+) vector between HindIII and XhoI site. The pcDNA3.1(+) vector contains the Neomycin resistance gene and was used for selection of stable cell line. The hCYP17a1 containing pcDNA3.1(+) was transfected into LNCap cells to create the LNCap-CYP17 cell line. The media for the LNCaP-CYP17 cells was RPMI 1640, 10% FBS, 1% PenStrep, Geneticin 400 μg/mL.
The H295R cells or LNCaP-hCYP17 cells were subcultured and 30,000 cells per well were seeded in a poly-d lysine plate and incubated overnight at 37° C. The next day the media was removed and 200 μL of fresh media with ^3H3-17α-hydroxy-pregnenolone (1:1000) was added. 50 μL of serially diluted compounds from a 5× plate (5 times the final desired concentration) was added. The working concentration range for active, new compounds started from a high concentration of 10 μM with 3-fold serial dilutions generating up to 10 concentrations. The serial dilution in the 100× plate (in DMSO) and the stamping of a 5× plate (in media) from the 100× plate were carried out using a TECAN liquid handling device.
The plates were incubated overnight (16 hours) at 37° C. After 16 hours, the media was removed (approximately 220 μL) and an equal amount of chloroform was added, mixed and incubated for 30 minutes at 4 degrees. The plate was centrifuged at 4000 rpm for 15 minutes at 4° C., following which the top aqueous layer was carefully removed and added into a new deep well plate. An equal volume of activated 5% charcoal was added, mixed and incubated for 30 minutes at 4° C. The plate was then centrifuged at 4000 rpm for 15 minutes at 4° C. and the top layer carefully separated, avoiding any charcoal contamination, and placed in a white, clear bottom plate (plate cat #3610, Corning Life Sciences). An equal volume of Microscint™ 40 was added and mixed well. Following the incubation for 30 minutes, readings for the radiotracer were taken using a Microbeta® trilux.

[2] = target: T2, rat CYP17 (rat testicular microsomes) (Rattus norvegicus, UniProt P11715); assay: CYP17 inhibition assay in rat testicular microsomes; format: biochemical
T2 construct: Rat testis tissue was collected and disrupted with 30 strokes of a glass homogenizer; from tissue; host or cells: rat testis (microsomes)
T2 sequence (P11715 1-507): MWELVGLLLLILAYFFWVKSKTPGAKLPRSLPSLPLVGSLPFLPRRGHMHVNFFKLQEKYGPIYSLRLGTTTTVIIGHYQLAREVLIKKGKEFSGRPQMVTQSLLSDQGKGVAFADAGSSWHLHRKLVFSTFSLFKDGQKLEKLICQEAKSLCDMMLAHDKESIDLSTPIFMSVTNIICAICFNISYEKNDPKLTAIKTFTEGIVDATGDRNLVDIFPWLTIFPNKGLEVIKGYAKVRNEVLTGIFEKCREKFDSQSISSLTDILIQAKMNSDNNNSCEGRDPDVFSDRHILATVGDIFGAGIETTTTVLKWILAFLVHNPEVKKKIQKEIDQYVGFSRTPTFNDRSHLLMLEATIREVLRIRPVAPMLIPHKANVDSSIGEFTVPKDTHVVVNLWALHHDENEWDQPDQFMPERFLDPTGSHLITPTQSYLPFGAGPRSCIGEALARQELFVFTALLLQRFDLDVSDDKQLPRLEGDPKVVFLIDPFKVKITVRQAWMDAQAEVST
Procedure: CYP17 Inhibition Assay in Rat Testicular Microsomes (Rat CYP17) or Yeast Microsome Overexpressing Human CYP17
1. NADPH (Sigma): A working stock was prepared by adding 25 μL of 6.5 mM NADPH in each tube. The final concentration of NADPH used in the assay was 325 μM.
2. Potassium Phosphate Buffer: One molar (1M) solutions of K2HPO4 and KH2PO4 were prepared. Eight mL of the 1 M KH2PO4 and 1.98 mL of the 1 M K2HPO4 were combined and the pH was adjusted to 7.4.
3. ^3H3-17α-hydroxypregnenolone (American Radiolabeled Chemicals, Inc., stock 1 μCi/μL): A 1:1 dilution of ^3H3-17α-hydroxypregnenolone in ethanol was prepared by combining 100 μL ^3H3-17α-hydroxypregnenolone+100 μL ethanol for one complete 96 well plate. For the reaction, 2 μL of the diluted ^3H3-17α-hydroxypregnenolone was added in each tube, i.e., 1 μCi/reaction. 4. Microsome Isolation Buffer: The microsome isolation buffer was prepared by combining 250 mM Sucrose, 5 mM EDTA, 10 mM Tris HCl, 4 mM DTT, and adjusting to pH 7.4. 5. TEG Buffer: The TEG buffer was prepared by combining 50 mM Tris HCl, 1 mM EDTA, and 20% Glycerol. 6. Rat Testicular Microsomes: Rat testis tissue was collected and disrupted with 30 strokes of a glass homogenizer on ice with 250 μL of microsome isolation buffer, followed by centrifugation at 10,000 g for 10 minutes at 4° C. The supernatant was collected and centrifuged at 100,000 g for 45 minutes at 4° C. The pellet was dissolved in TEG Buffer and the protein was quantified. The homogenized microsome samples were then frozen at −80° C. • 7. Yeast Microsomes which overexpress the human CYP17 enzyme were obtained from Premas Biotech, India.
Potassium phosphate buffer (470 μL) was prepared as described above and was added to each well of a deep well plate. The test compound was diluted using a TECAN liquid handler and 5 μL of diluted compound was transferred to each well (96 deep well/1 mL). A solution (25 μL) of 6.5 mM NADPH was added (final concentration of 325 μM in the assay). ^3H3-17α-hydroxypregnenolone (2 μL of the working stock) was added to each tube. The plates were then pre-incubated for 15 minutes at 37° C. Following the pre-incubation, either 5 μL rat testicular microsomes (150-160 μg) or 5 μL of yeast microsomes expressing human CYP17 (1.7 pmol), was added. Incubation was at 37° C. for 60 minutes in the presence of oxygen. The plates were then placed in ice and chloroform (500 μL) was added, mixed well and incubated at 4° C. for 20 minutes. The plates were then centrifuged at 1000 rpm for 15 minutes at 4° C.
A portion (300 μL) of the aqueous solution was collected and mixed with a 5% aqueous suspension of activated charcoal (300 μL). The plates were then incubated at 4° C. for 30 minutes, after which the plates were centrifuged at 1000 rpm for 15 minutes at 4° C. From this, 125 μL of the aqueous solution was collected and plated into a 96 well plate. Microscint™ 40 [125 μL, Perkin-Elmer; containing a mixture of a polymer based on alkylphenolethoxylate (20-40%), diethanolamine-phosphoric acid ester ammonium salt (10-20%), sodium dioctyl sulphosuccinate (2.5-10%), triethyl phosphate (2.5-10%), 3,6-dimethyl-4-octyne-3,6-diol (≦2.5%), a polymer based on nonylphenolethoxylate (≦2.5%), diisopropyl naphthalene isomers (40-60%), 2,5-diphenyloxazole (≦2.5%), and 9,10-dimethylanthracene] was added and mixed well. After 30 minutes of incubation, the samples were analyzed with a MicroBeta® Trilux microplate liquid scintillation counter and luminometer (Perkin-Elmer).

Row | IC50 [1] [nM] | IC50 [2] [nM] | Structure (SMILES)
1 | 201 to 10000 | < 50 | CC(O)(c1ccncc1)c1ccc(-c2ccc(F)cc2)cn1 (stereo not drawn) [Example 5, 1-(5-(4-fluorophenyl)-pyridin-2-yl)-1-(pyridin-4-yl)ethanol]
2 | 50 to 200 | < 50 | CC(O)(c1ccncc1)c1cnc(-c2ccc(C#N)cc2)s1 (stereo not drawn) [Example 56, 4-(5-(1-hydroxy-1-(pyridin-4-yl)ethyl)thiazol-2-yl)benzonitrile]
3 | 201 to 10000 | 50 to 200 | CC(O)(c1ccncc1)c1cnc(-c2ccc(S(C)(=O)=O)cc2)s1 (stereo not drawn) [Example 45, 1-(2-(4-(methylsulfonyl)-phenyl)thiazol-5-yl)-1-(pyridin-4-yl)ethanol]
4 | < 50 | < 50 | CC(O)(c1ccncc1)c1cc(-c2ccc(F)cc2)ns1 (stereo not drawn) [Example 48, 1-(3-(4-fluorophenyl)isothiazol-5-yl)-1-(pyridin-4-yl)ethanol]
5 | < 50 | < 50 | CC(O)(c1ccncc1)c1ncc(-c2ccc(F)cc2)s1 (single isomer, unassigned; (-)) [Example 54, (−)-1-(5-(4-fluorophenyl)thiazol-2-yl)-1-(pyridin-4-yl)ethanol]
6 | 50 to 200 | < 50 | CC(O)(c1ccncc1)c1cnc(-c2ccc(C#N)c(C(F)(F)F)c2)s1 (stereo not drawn) [Example 30, 4-(5-(1-Hydroxy-1-(pyridin-4-yl)ethyl)thiazol-2-yl)-2-(trifluoro-methyl)benzonitrile]
7 | < 50 | < 50 | CC(O)(c1ccncc1)c1cnc(-c2ccccc2)s1 (stereo not drawn) [Example 51, 1-(2-phenylthiazol-5-yl)-1-(pyridin-4-yl)ethanol]
8 | 50 to 200 | < 50 | CC(O)(c1ccncc1)c1nnc(-c2ccc(F)cc2)s1 (stereo not drawn) [Example 61, 1-(5-(4-fluorophenyl)-1,3,4-thiadiazol-2-yl)-1-(pyridin-4-yl)ethanol]

Second part, the compound before the results:

Row | Structure (SMILES) | IC50 [1] [nM] | IC50 [2] [nM]
9 | CC(O)(c1ccncc1)c1noc(-c2ccc(F)cc2)n1 (stereo not drawn) [Example 29, 1-(5-(4-Fluorophenyl)-1,2,4-oxadiazol-3-yl)-1-(pyridin-4-yl)ethanol] | 201 to 10000 | < 50
10 | CCC(O)(c1ccncc1)c1cnc(-c2cn[nH]c2)s1 (stereo not drawn) [Example 18, 1-(2-(1H-Pyrazol-4-yl)thiazol-5-yl)-1-(pyridin-4-yl)propan-1-ol] | < 50 | < 50
11 | CCC(O)(c1ccncc1)c1cnc(-c2cn[nH]c2)s1 (single isomer, unassigned; (-)) [Example 19, (−)-1-[2-(1H-pyrazol-4-yl)-1,3-thiazol-5-yl]-1-pyridin-4-ylpropan-1-ol] | < 50 | < 50
12 | CC(O)(c1ccncc1)c1nsc(-c2ccc(F)cc2)n1 (stereo not drawn) [Example 53, 1-(5-(4-fluorophenyl)-1,2,4-thiadiazol-3-yl)-1-(pyridin-4-yl)ethanol] | 201 to 10000 | 50 to 200
13 | OC1(c2cnc(-c3ccc(F)cc3)s2)CCCc2cnccc21 (stereo not drawn) [Example 25, 5-(2-(4-fluorophenyl)thiazol-5-yl)-5,6,7,8-tetrahydroisoquinolin-5-ol] | 201 to 10000 | < 50
14 | Cn1cc(-c2ccc(C(C)(O)c3ccncc3)o2)ccc1=O (stereo not drawn) [Example 58, 5-(5-(1-hydroxy-1-(pyridin-4-yl)ethyl)furan-2-yl)-1-methylpyridin-2(1H)-one] | 201 to 10000 | 50 to 200
15 | CC(O)(c1ccncc1)c1cc(-c2ccc(F)cc2)on1 (stereo not drawn) [Example 50, 1-(5-(4-fluorophenyl)isoxazol-3-yl)-1-(pyridin-4-yl)ethanol] | 50 to 200 | < 50
16 | CC(O)(c1ccncc1)c1cnc(-c2ccc(F)cc2)cn1 (stereo not drawn) [Example 11, 1-(5-(4-Fluorophenyl)pyrazin-2-yl)-1-(pyridin-4-yl)ethanol] | 201 to 10000 | < 50
17 | Cn1cc(-c2ncc(C(C)(O)c3ccncc3)o2)ccc1=O (stereo not drawn) [Example 60, 5-(5-(1-hydroxy-1-(pyridin-4-yl)-ethyl)oxazol-2-yl)-1-methylpyridin-2(1H)-one] | 201 to 10000 | 201 to 10000
18 | CC(O)(c1ccncc1)c1ccc(-c2ccc(C#N)cc2)cn1 (stereo not drawn) [Example 10, 4-(6-(1-hydroxy-1-(pyridin-4-yl)-ethyl)pyridin-3-yl)-benzonitrile] | 201 to 10000 | < 50
